In patent publication US7196074B2, “Methods of making, using and pharmaceutical formulations comprising 7α, 11β-dimethyl-17β-hydroxyestra-4, 14-dien-3-one and 17 esters thereof” (The United States of America as represented by the …, priority 2000, dated 2007):

Legend:
[1] = Serum levels of the free alcohol after single subcutaneous injection of ester; format: in vivo, Sprague-Dawley rats; details: single subcutaneous 0.6 mg suspended in aqueous carrier; 10 week observation period, FIG. 10
Description: Immature (about 21-day-old) Sprague-Dawley rats were orchidectomized under anesthesia, and randomly assignee to groups of 40 or more. Animals received a single subcutaneous injection of 0.6 mg of each ester in 0.2 ml of an aqueous suspending carrier and/or oily carrier (10% ethanol/90% sesame oil or ethyl oleate) on the date of the orchidectomy. In cases where the ester was not solid at room temperature, 10% ethanol/sesame oil or ethyl oleate was used as the carrier. In this example, the carrier used to provide the aqueous suspension was formulated as follows: 1 g benzyl alcohol, 0.5 g sodium carboxylethyl cellulose 50, 0.376 g disodium hydrogen phosphate dihydrate, 1.495 g sodium dihydrogen phosphate dihydrate, with water for injection (WFI) being added to bring volume of the carrier up to 100 ml.

[2] = test system: ventral prostate weight; assay: Oral androgenic potency, ventral prostate weight assay in orchidectomized immature rats (gavage daily for seven days); format: in vivo, Sprague-Dawley rats; details: ventral prostate weight; for oral androgenic activity, times as potent as methyltestosterone: gavage daily for 7 days in 10% ethanol/sesame oil (oily carrier)
Description: (§1) Immature (about 21-day-old) Sprague-Dawley rats were orchidectomized under anesthesia, and randomly assignee to groups of ten animals for each dose level of the active undergoing testing. Each active was dissolved in 10% ethanol/sesame oil and administered by gavage (oral) each day for seven days beginning on the date of the orchidectomy. The animals were sacrificed 24 hours after the last dose, and the ventral prostate and seminal vesicles were excised, cleaned of fat and connective tissue, blotted on moist filter paper and weighed to the nearest 0.1 mg. See, e.g., Hershberger, L. et al, Myotrophic Activity of 19-nortestosterone And Other Steroids Determined By Modified Levator And Muscle Method, Proc. Soc. Exptl. Biol. Med 83 175–180 (1953). Regression analysis was performed by conventional methods using a PROPHET data management system. See, e.g., Bliss, C., The Statistics of Bioassay (Academic Press, New York, 1952); Hollister, C., Nucleic Acids Res. 16 1873–75 (1988). Ventral prostate weight was used as the endpoint because it is the sensitive organ to androgenic stimulation.
as §1, with “(oral) or subcutaneous injection” for “(oral)”, “mg.” for “mg. See, e.g., Hershberger, L. et al, Myotrophic Activity of 19-nortestosterone And Other Steroids Determined By Modified Levator And Muscle Method, Proc. Soc. Exptl. Biol. Med 83 175–180 (1953).”, “system.” for “system. See, e.g., Bliss, C., The Statistics of Bioassay (Academic Press, New York, 1952); Hollister, C., Nucleic Acids Res. 16 1873–75 (1988).”
Immature (about 21-day-old) Sprague-Dawley rats were orchidectomized under anesthesia, and randomly assignee to groups of ten animals for each dose level of the active undergoing testing. Four dosage forms were prepared. The first two forms constituted a solution of each active in 10% ethanol/sesame oil. The third and fourth dosage forms constituted a suspension of each active in an aqueous carrier (as described in Example 2, supra). These dosage forms were then administered by gavage (oral) to separate animal groups each day for seven days beginning on the date of the orchidectomy. Each carrier was also administered (alone) to separate groups of animals as a control. The animals were sacrificed 24 hours after the last dose, and the ventral prostate and seminal vesicles were excised, cleaned of fat and connective tissue, blotted on moist filter paper and weighed to the nearest 0.1 mg. See, e.g., Hershberger, L. et al, Myotrophic Activity of 19-nortestosterone And Other Steroids Determined By Modified Levator And Muscle Method, Proc. Soc. Exptl. Biol. Med. 83 175–180 (1953). Regression analysis was performed by conventional methods using a PROPHET data management system. See, e.g., Bliss, C., The Statistics of Bioassay (Academic Press, New York, 1952); Hollister, C., Nucleic Acids Res. 16 1873–75 (1988). Ventral prostate weight was used as the endpoint because it is the sensitive organ to androgenic stimulation.
Immature (about 21 day old) Sprague male rats were orchidectomized under anesthesia, and randomly assignee to groups often animals for each dose level of the active undergoing testing. Animals were maintained under standard conditions of housing and had free access to food and water. Illumination was controlled for 14 hour periods of light and 10 hours of darkness. Each active was dissolved in 10% ethanol/sesame oil and administered by gavage (oral) each day for seven days beginning on the date of the orchidectomy. […]

[3] = gavage daily for 7 days in 10% ethanol/sesame oil

Row | Structure (SMILES) | serum levels of the free alcohol (7α,11β-dimethyl-19-nortestosterone) [1] | oral androgenic activity, times as potent as methyltestosterone [2] | oral androgenic activity, times as potent as testosterone bucyclate (1781 V-1) [2, 3] | oral androgenic activity, times as potent as the free alcohol (1321 D) [2, 3] | oral androgenic activity, times more potent than testosterone (111-C) [2, 3] | oral androgenic activity, times more potent than testosterone enanthate (112a) [2, 3] | oral androgenic potency relative to methyltestosterone in the same aqueous carrier ([2]; gavage daily for 7 days, suspension in aqueous carrier)
1 | CCCC[C@H]1CC[C@H](C(=O)O[C@H]2CC[C@H]3[C@H]4[C@H]([C@@H](C)C[C@]23C)[C@H]2CCC(=O)C=C2C[C@H]4C)CC1 (relative stereo) [Compound I, 7α,11β-Dimethyl-17β-hydroxy-4-estren-3-one 17β-trans-4-n-butylcyclohexane carboxylate] | highest levels of the free alcohol | 3.77 times | at least 4 times | at least 4 times | 10–100 times | 10–100 times | –
2 | CCCCCCCCCCC(=O)O[C@H]1CC[C@H]2[C@H]3[C@H]([C@@H](C)C[C@]12C)[C@H]1CCC(=O)C=C1C[C@H]3C [Compound II, 7α,11β-dimethyl-17β-hydroxyestr-4-en-3-one 17-undecanoate] | – | 2.36 times | – | – | – | – | 0.95 times
